Legend:
CqsRp = conditions: thermal unfolding; cited from earlier work
[1] = biological target: CqsR periplasmic domain (CqsRp) (Vibrio cholerae, UniProt Q9KR16); conditions: MST binding studies, summary of Fig 4
CqsR-Y169A = CqsR-Y169A strain, exogenously added ethanolamine
CqsR-D171A = CqsR-D171A strain, exogenously added ethanolamine
CqsR = conditions: in vivo / in culture, high-cell-density phenotype; cited from earlier work
CqsR-T196A = CqsR-T196A strain, exogenously added ethanolamine
CqsR-D198N = CqsR-D198N strain, exogenously added ethanolamine
CqsR-W151A = CqsR-W151A strain, exogenously added ethanolamine
WT CqsR = WT CqsR strain, exogenously added ethanolamine

Row | SMILES | CqsR binding (in words) [1] | also measured
1 | NC(CO)CO [Serinol, serinol] |  | CqsRp melting temperature (CqsRp): increased
2 | C[C@H](N)CO [L-alaninol] |  | CqsRp melting temperature (CqsRp): increased
3 | NCC(N)=O [glycinamide] | not tolerated | 
4 | NC(CO)(CO)CO [Tris, tris] | Weak CqsR binding | 
5 | NCCS [cysteamine] | not tolerated | 
6 | CCC(N)CC [pentan-3-amine] | not tolerated | 
7 | NCC(=O)O [Glycine, glycine] | not tolerated | 
8 | NCCN [Ethylenediamine, ethylenediamine] | Weak CqsR binding | 
9 | C[C@H](N)C(=O)O [Alanine, alanine] | not tolerated | 
10 | OCC(O)CO [Glycerol, glycerol] | No binding | 
11 | CCCO [propanol] | No binding | 
12 | OCCO [Ethylene glycol, ethylene glycol] | No binding | 
13 | CCCN [propylamine] | not tolerated | 
14 | NCCO [Ethanolamine, ethanolamine] |  | qrr4 transcription (bioluminescence) (CqsR-Y169A): reduced to a level comparable to that of the WT; qrr4 transcription (bioluminescence) (CqsR-D171A): intermediate phenotype; CqsR signaling agonism (CqsR): acted as CqsR signaling agonists; qrr4 transcription (bioluminescence) (CqsR-T196A): reduced to a level comparable to that of the WT; qrr4 transcription (bioluminescence) (CqsR-D198N): completely irresponsive; qrr4 transcription (bioluminescence) (CqsR-W151A): intermediate phenotype; qrr4 transcription (bioluminescence) (WT CqsR): reduced in a dose-dependent manner
15 | CC[C@H](N)CO [(S)-(+)-2-amino-1-butanol] | Weak CqsR binding | 
16 | CCC(N)CO (stereo not shown) [2-amino-1-butanol] | Weak CqsR binding | 

Reference: paper PMC12410723, “Structure-function studies of Vibrio cholerae quorum-sensing receptor CqsR signal recognition” (PLOS Pathogens, 2025)
